Results as given in US20220324835A1 (Nurix Therapeutics, Inc., priority 2018, published 2022).

Tests used:
Cbl-b [1] = biological target: T1, Cbl-b (Homo sapiens, UniProt Q13191); experiment: Cbl-b inhibition assay (Cbl-b activity assay, FRET, Biological Example 1; 100 mM NaCl, 60 nM Src kinase); format: biochemical; conditions: upper bound stated in text lists; read-out: IC50 values in the Cbl-b inhibition assay of Biological Example 1
Method in brief: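 Binding-based Cbl-b activity assay. Src-phosphorylated, N-terminally biotin-Avi-tagged Cbl-b recruits labelled UbcH5B-Ub, and proximity to streptavidin-terbium yields FRET.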

T-cell [2] = experiment: CD25 cell surface staining on T-cells stimulated with anti-CD3 antibody alone (Biological Example 2); format: cell-based; conditions: primary human total T-cells, baseline = anti-CD3/anti-CD28 stimulated cells without inhibitor, read-out: CD25 staining, Anti-CD3 stimulation, fold change over baseline; for fold induction at 1 µM: 1 μM compound; for fold induction at 8 µM: 8 μM compound
T-cell [3] = experiment: IL-2 secretion from T-cells stimulated with anti-CD3 antibody alone (Biological Example 2); format: cell-based; conditions: primary human total T-cells, read-out: IL-2 secretion, Anti-CD3 stimulation, fold change over baseline; for fold induction at 1 µM: 1 μM compound; for fold induction at 8 µM: 8 μM compound
T-cell [4] = experiment: IL-2 secretion from T-cells co-stimulated with anti-CD3 and anti-CD28 antibody (Biological Example 2); format: cell-based, human; conditions: Homo sapiens, T-cell, primary human total T-cells, baseline = anti-CD3/anti-CD28 stimulated cells without inhibitor, read-out: IL-2 secretion, Anti-CD3/Anti-CD28 stimulation, fold change over baseline; for fold induction at 0.3 µM: 0.3 μM compound; for fold induction at 1 µM: 1 μM compound; for fold induction at 4 µM: 4 μM compound
Method in brief: (§1)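 No assay protocol given; T-cells stimulated with anti-CD3 alone or anti-CD3 plus anti-CD28, with or without Cbl-b inhibitor. Activation read as IL-2 secretion or CD25 surface staining, expressed as fold over baseline from uninhibited cells […].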

T-cell [5] = experiment: CD25 cell surface staining on T-cells co-stimulated with anti-CD3 and anti-CD28 antibody (Biological Example 2); format: cell-based, human; conditions: Homo sapiens, T-cell, primary human total T-cells, baseline = anti-CD3/anti-CD28 stimulated cells without inhibitor, read-out: CD25 staining, Anti-CD3/Anti-CD28 stimulation, fold change over baseline; for fold induction at 0.3 µM: 0.3 μM compound; for fold induction at 1 µM: 1 μM compound; for fold induction at 4 µM: 4 μM compound
Method in brief: as §1

Cbl-b [6] = biological target: T1, Cbl-b; experiment: Cbl-b activity assay (Cbl-b inhibition assay), TR-FRET of Cbl-b interaction with UbcH5B-Ub; format: biochemical; conditions: assay buffer with 100 mM NaCl, 60 nM Src kinase; read-out: Cbl-b activity IC50
Method in brief: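 TR-FRET readout of Cbl-b binding to Bodipy-fluorescein N-terminally labeled Ub conjugated to UbcH5B C85K, measured with compound present. After compound incubation, 60 nM Src kinase with 1 mM ATP and 5 mM MgCl2 (final) was added for 1.5 h, then a further 1 h incubation; asterisked values used 50 mM NaCl buffer and 30 nM Src.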

T1 sequence (Q13191 36-427): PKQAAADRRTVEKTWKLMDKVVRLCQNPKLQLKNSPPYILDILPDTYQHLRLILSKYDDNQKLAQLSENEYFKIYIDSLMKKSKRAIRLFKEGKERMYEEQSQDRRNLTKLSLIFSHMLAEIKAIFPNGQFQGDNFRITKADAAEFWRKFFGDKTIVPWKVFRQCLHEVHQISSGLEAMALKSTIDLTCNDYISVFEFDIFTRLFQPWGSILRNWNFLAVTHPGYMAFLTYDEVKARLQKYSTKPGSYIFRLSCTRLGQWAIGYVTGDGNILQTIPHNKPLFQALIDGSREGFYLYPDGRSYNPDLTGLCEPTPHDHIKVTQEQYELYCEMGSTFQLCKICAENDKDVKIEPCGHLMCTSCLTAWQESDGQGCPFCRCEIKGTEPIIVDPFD

Compound	IC50 (Cbl-b [1])	fold induction at 1 µM (T-cell [2])	fold induction at 1 µM (T-cell [3])	fold induction at 0.3 µM (T-cell [4])	fold induction at 1 µM (T-cell [4])	fold induction at 0.3 µM (T-cell [5])	fold induction at 1 µM (T-cell [5])	IC50 (Cbl-b [6])	fold induction at 8 µM (T-cell [2])	fold induction at 8 µM (T-cell [3])	fold induction at 4 µM (T-cell [4])	fold induction at 4 µM (T-cell [5])
Cn1cnnc1CC1(c2cccc(N3Cc4c(cc(CN5CC6CC6(C)C5)cc4C(F)(F)F)C3=O)c2)COC1 (stereo not drawn) [Compound 491, 6-((1-methyl-3-azabicyclo[3.1.0]hexan-3-yl)methyl)-2-(3-(3-((4-methyl-4H-1,2,4-triazol-3-yl)methyl)oxetan-3-yl)phenyl)-4-(trifluoromethyl)isoindolin-1-one]	≤ 100 nM	> 1	> 0.201	> 7.5	> 7.5	1.01 to 1.3	1.01 to 1.3	< 100 nM				
Cn1cnnc1C(F)(F)[C@](C)(F)c1cccc(N2Cc3c(cc(CN4CC[C@H](C#N)C4)cc3C(F)(F)F)C2=O)c1 [Compound 454, (S)-1-((3-oxo-2-(3-((R)-1,1,2-trifluoro-1-(4-methyl-4H-1,2,4-triazol-3-yl)propan-2-yl)phenyl)-7-(trifluoromethyl)isoindolin-5-yl)methyl)pyrrolidine-3-carbonitrile]	≤ 100 nM	> 1	> 0.201	5 to 7.5	> 7.5	1.01 to 1.3	1.31 to 1.5	< 100 nM	> 1	> 0.201	> 7.5	1.31 to 1.5
C[C@H](Cc1nncn1C)c1cccc(N2Cc3c(cc([C@@H]4CCCNC4)cc3C(F)(F)F)C2=O)c1 [Compound 382, 2-(3-((R)-1-(4-methyl-4H-1,2,4-triazol-3-yl)propan-2-yl)phenyl)-6-((S)-piperidin-3-yl)-4-(trifluoromethyl)isoindolin-1-one]	≤ 300 nM	0.601 to 0.8	0.101 to 0.15	2.51 to 5	5 to 7.5	1.01 to 1.3	1.31 to 1.5	100 to 300 nM	> 1	> 0.201	5 to 7.5	1.51 to 1.75
C[C@H](Cc1nncn1C)c1cccc(N2Cc3c(cc([C@H](C)N4CC(O)C4)cc3C(F)(F)F)C2=O)c1 [Compound 406, 6-((S)-1-(3-hydroxyazetidin-1-yl)ethyl)-2-(3-((R)-1-(4-methyl-4H-1,2,4-triazol-3-yl)propan-2-yl)phenyl)-4-(trifluoromethyl)isoindolin-1-one]	≤ 100 nM	> 1	> 0.201	5 to 7.5	> 7.5	1.01 to 1.3	1.31 to 1.5	< 100 nM	> 1	> 0.201	> 7.5	1.31 to 1.5
Cn1cnnc1C(F)(F)[C@](C)(F)c1cccc(NC(=O)c2cc(CN3CC[C@H](F)C3)nc(C3CC3)n2)c1 [Compound 512, 2-cyclopropyl-6-{[(3S)-3-fluoropyrrolidin-1-yl]methyl}-N-{3-[(2R)-1,1,2-trifluoro-1-(4-methyl-1,2,4-triazol-3-yl)propan-2-yl]phenyl}pyrimidine-4-carboxamide]	≤ 100 nM	0.801 to 1	0.051 to 0.1	2.51 to 5	5 to 7.5	1.01 to 1.3	1.01 to 1.3	< 100 nM				
C[C@H]1CN(C)CCN1c1cc2c(c(C(F)(F)F)c1)CN(c1cccc([C@@](C)(F)C(F)(F)c3nncn3C)c1)C2=O [Compound 444, 6-((S)-2,4-Dimethylpiperazin-1-yl)-2-(3-((R)-1,1,2-trifluoro-1-(4-methyl-4H-1,2,4-triazol-3-yl)propan-2-yl)phenyl)-4-(trifluoromethyl)isoindolin-1-one]	≤ 100 nM	> 1	0.101 to 0.15	1.01 to 2.5	5 to 7.5	1.01 to 1.3	1.01 to 1.3	< 100 nM	> 1	> 0.201	> 7.5	1.31 to 1.5
C[C@H](Cc1nncn1C)c1cc(N[C@@H](C)CO)nc(N2Cc3c(cccc3C(F)(F)F)C2=O)c1 [Compound 365, 2-(6-((S)-1-hydroxypropan-2-ylamino)-4-((R)-1-(4-methyl-4H-1,2,4-triazol-3-yl)propan-2-yl)pyridin-2-yl)-4-(trifluoromethyl)isoindolin-1-one]	≤ 300 nM	0.601 to 0.8	0.051 to 0.1	1.01 to 2.5	1.01 to 2.5	1.01 to 1.3	1.01 to 1.3	100 to 300 nM	> 1	0.151 to 0.2	2.51 to 5	1.01 to 1.3
CCOc1cc(N2Cc3c(cc(CN4CC[C@H](F)C4)cc3C(F)(F)F)C2=O)cc(C2(Cc3nncn3C)COC2)c1 [Compound 468, 2-(3-ethoxy-5-{3-[(4-methyl-4H-1,2,4-triazol-3-yl)methyl]oxetan-3-yl}phenyl)-6-{[(3×)-3-fluoropyrrolidin-1-yl]methyl}-4-(trifluoromethyl)-2,3-dihydro-1H-isoindol-1-one]	≤ 100 nM	> 1	> 0.201	5 to 7.5	> 7.5	1.31 to 1.5	1.31 to 1.5	< 100 nM				
Cn1cnnc1CC1(c2cccc(N3Cc4c(cc(CN5C[C@@H](F)[C@@H](F)C5)cc4C(F)(F)F)C3=O)c2)COC1 [Compound 414, 6-((cis-3,4-Difluoropyrrolidin-1-yl)methyl)-2-(3-(3-((4-methyl-4H-1,2,4-triazol-3-yl)methyl)oxetan-3-yl)phenyl)-4-(trifluoromethyl)isoindolin-1-one]	≤ 100 nM	0.801 to 1	0.151 to 0.2	> 7.5	> 7.5	1.31 to 1.5	1.31 to 1.5	< 100 nM	> 1	> 0.201	> 7.5	1.51 to 1.75
Cn1cnnc1CC1(c2cccc(NC(=O)c3cc(CN4CCC5CC54)cc(C4CC4)n3)c2)COC1 (stereo not drawn) [Compound 497, 4-{2-azabicyclo[3.1.0]hexan-2-ylmethyl}-6-cyclopropyl-N-(3-{3-[(4-methyl-1,2,4-triazol-3-yl)methyl]oxetan-3-yl}phenyl)pyridine-2-carboxamide]	≤ 100 nM	> 1	> 0.201	> 7.5	> 7.5	1.31 to 1.5	1.31 to 1.5	< 100 nM				
Cn1cnnc1CC1(c2cccc(NC(=O)c3cc(CN4C[C@H]5C[C@H]5C4)cc(C4CC4)n3)c2)COC1 [Compound 498, 4-{3-azabicyclo[3.1.0]hexan-3-ylmethyl}-6-cyclopropyl-N-(3-{3-[(4-methyl-1,2,4-triazol-3-yl)methyl]oxetan-3-yl}phenyl)pyridine-2-carboxamide]	≤ 100 nM	> 1	> 0.201	> 7.5	> 7.5	1.31 to 1.5	1.31 to 1.5	< 100 nM				
Cn1cnnc1CC1(c2cccc(N3Cc4c(cc(CN5CC[C@@H]6C[C@@H]65)cc4C(F)(F)F)C3=O)c2)COC1 (single isomer, unassigned) [Compound 486b]	≤ 100 nM	> 1	> 0.201	> 7.5	> 7.5	1.51 to 1.75	1.51 to 1.75	< 100 nM				
